# Source: article PMC6591251, “Discovery of potent necroptosis inhibitors targeting RIPK1 kinase activity for the treatment of inflammatory disorder and cancer metastasis” (Cell Death & Disease, 2019)
# Experiments:
# Experiment in all cases: RBC kinase panel
# Assay type in all cases: biochemical
# Settings in all cases: ATP 10 μM, Data1, Data2
# BLK = target: T1, BLK (Homo sapiens, UniProt P51451)
# T1 construct: purchased Reaction Biology Corporation
# How it was run: (§1)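 1 μM inhibitor; n = 2; ATP 10 μM; broad panel of 369 human kinases.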
# BRAF = target: T2, BRAF (Homo sapiens, UniProt P15056)
# T2 construct: purchased Reaction Biology Corporation
# How it was run: as §1
# CDK3/cyclin E = target: T3, CDK3/cyclin E (Homo sapiens, UniProt Q00526)
# T3 construct: purchased Reaction Biology Corporation
# How it was run: as §1
# CDK9/cyclin K = target: T4, CDK9/cyclin K (Homo sapiens, UniProt P50750)
# T4 construct: purchased Reaction Biology Corporation
# How it was run: as §1
# CHK2 = target: T5, CHK2 (Homo sapiens, UniProt O96017)
# T5 construct: purchased Reaction Biology Corporation
# How it was run: as §1
# COT1/MAP3K8 = target: T6, COT1/MAP3K8 (Homo sapiens, UniProt P41279)
# T6 construct: purchased Reaction Biology Corporation
# How it was run: as §1
# DCAMKL1 = target: T7, DCAMKL1 (Homo sapiens, UniProt O15075)
# T7 construct: purchased Reaction Biology Corporation
# How it was run: as §1
# DYRK1/DYRK1A = target: T8, DYRK1/DYRK1A (Homo sapiens, UniProt Q13627)
# T8 construct: purchased Reaction Biology Corporation
# How it was run: as §1
# DYRK1B = target: T9, DYRK1B (Homo sapiens, UniProt Q9Y463)
# T9 construct: purchased Reaction Biology Corporation
# How it was run: as §1
# EPHA2 = target: T10, EPHA2 (Homo sapiens, UniProt P29317)
# T10 construct: purchased Reaction Biology Corporation
# How it was run: as §1
# EPHA5 = target: T11, EPHA5 (Homo sapiens, UniProt P54756)
# T11 construct: purchased Reaction Biology Corporation
# How it was run: as §1
# EPHB1 = target: T12, EPHB1 (Homo sapiens, UniProt P54762)
# T12 construct: purchased Reaction Biology Corporation
# How it was run: as §1
# ERK1 = target: T13, ERK1 (Homo sapiens, UniProt P27361)
# T13 construct: purchased Reaction Biology Corporation
# How it was run: as §1
# FES/FPS = target: T14, FES/FPS (Homo sapiens, UniProt P07332)
# T14 construct: purchased Reaction Biology Corporation
# How it was run: as §1
# FMS = target: T15, FMS (Homo sapiens, UniProt P07333)
# T15 construct: purchased Reaction Biology Corporation
# How it was run: as §1
# GRK2 = target: T16, GRK2 (Homo sapiens, UniProt P25098)
# T16 construct: purchased Reaction Biology Corporation
# How it was run: as §1
# GRK5 = target: T17, GRK5 (Homo sapiens, UniProt P34947)
# T17 construct: purchased Reaction Biology Corporation
# How it was run: as §1
# HPK1/MAP4K1 = target: T18, HPK1/MAP4K1 (Homo sapiens, UniProt Q92918)
# T18 construct: purchased Reaction Biology Corporation
# How it was run: as §1
# MLK4 = target: T19, MLK4 (Homo sapiens, UniProt Q5TCX8)
# T19 construct: purchased Reaction Biology Corporation
# How it was run: as §1
# MRCKa/CDC42BPA = target: T20, MRCKa/CDC42BPA (Homo sapiens, UniProt Q5VT25)
# T20 construct: purchased Reaction Biology Corporation
# How it was run: as §1
# MSSK1/STK23 = target: T21, MSSK1/STK23 (Homo sapiens, UniProt Q9UPE1)
# T21 construct: purchased Reaction Biology Corporation
# How it was run: as §1
# MST4 = target: T22, MST4 (Homo sapiens, UniProt Q9P289)
# T22 construct: purchased Reaction Biology Corporation
# How it was run: as §1
# MUSK = target: T23, MUSK (Homo sapiens, UniProt O15146)
# T23 construct: purchased Reaction Biology Corporation
# How it was run: as §1
# MYLK3 = target: T24, MYLK3 (Homo sapiens, UniProt Q32MK0)
# T24 construct: purchased Reaction Biology Corporation
# How it was run: as §1
# PAK1 = target: T25, PAK1 (Homo sapiens, UniProt Q13153)
# T25 construct: purchased Reaction Biology Corporation
# How it was run: as §1
# PAK6 = target: T26, PAK6 (Homo sapiens, UniProt Q9NQU5)
# T26 construct: purchased Reaction Biology Corporation
# How it was run: as §1
# PASK = target: T27, PASK (Homo sapiens, UniProt Q96RG2)
# T27 construct: purchased Reaction Biology Corporation
# How it was run: as §1
# PIM3 = target: T28, PIM3 (Homo sapiens, UniProt Q86V86)
# T28 construct: purchased Reaction Biology Corporation
# How it was run: as §1
# PKCiota = target: T29, PKCiota (Homo sapiens, UniProt P41743)
# T29 construct: purchased Reaction Biology Corporation
# How it was run: as §1
# PKD2/PRKD2 = target: T30, PKD2/PRKD2 (Homo sapiens, UniProt Q9BZL6)
# T30 construct: purchased Reaction Biology Corporation
# How it was run: as §1
# PKG1a = target: T31, PKG1a (Homo sapiens, UniProt Q13976)
# T31 construct: purchased Reaction Biology Corporation
# How it was run: as §1
# STK32B/YANK2 = target: T32, STK32B/YANK2 (Homo sapiens, UniProt Q9NY57)
# T32 construct: purchased Reaction Biology Corporation
# How it was run: as §1
# STK38/NDR1 = target: T33, STK38/NDR1 (Homo sapiens, UniProt Q15208)
# T33 construct: purchased Reaction Biology Corporation
# How it was run: as §1
# T15 sequence (P07333 20-972): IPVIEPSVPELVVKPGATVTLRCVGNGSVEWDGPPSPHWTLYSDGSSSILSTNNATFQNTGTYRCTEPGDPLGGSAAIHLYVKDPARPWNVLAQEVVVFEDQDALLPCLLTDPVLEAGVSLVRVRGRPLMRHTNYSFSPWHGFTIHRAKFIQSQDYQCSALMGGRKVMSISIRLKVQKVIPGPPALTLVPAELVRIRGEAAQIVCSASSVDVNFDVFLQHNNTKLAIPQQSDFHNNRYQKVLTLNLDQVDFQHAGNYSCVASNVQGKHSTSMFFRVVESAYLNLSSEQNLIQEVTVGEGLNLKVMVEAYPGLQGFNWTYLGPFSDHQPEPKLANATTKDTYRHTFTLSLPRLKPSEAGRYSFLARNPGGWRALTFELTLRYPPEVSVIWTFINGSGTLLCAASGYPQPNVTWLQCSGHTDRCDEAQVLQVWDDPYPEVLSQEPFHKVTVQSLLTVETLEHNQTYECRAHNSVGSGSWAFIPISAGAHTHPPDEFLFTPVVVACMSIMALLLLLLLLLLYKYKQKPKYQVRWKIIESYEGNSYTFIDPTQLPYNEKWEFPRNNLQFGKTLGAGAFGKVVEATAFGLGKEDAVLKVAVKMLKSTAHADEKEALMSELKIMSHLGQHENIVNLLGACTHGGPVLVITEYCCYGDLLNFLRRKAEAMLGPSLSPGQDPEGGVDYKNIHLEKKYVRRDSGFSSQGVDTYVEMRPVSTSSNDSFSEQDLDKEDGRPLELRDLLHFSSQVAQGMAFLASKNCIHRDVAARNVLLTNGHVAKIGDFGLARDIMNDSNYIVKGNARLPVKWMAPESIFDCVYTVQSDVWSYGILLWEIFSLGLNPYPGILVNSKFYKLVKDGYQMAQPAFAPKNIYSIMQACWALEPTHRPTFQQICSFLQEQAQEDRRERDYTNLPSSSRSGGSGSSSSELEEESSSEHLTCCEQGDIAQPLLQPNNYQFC
# T4 sequence (P50750 whole entry): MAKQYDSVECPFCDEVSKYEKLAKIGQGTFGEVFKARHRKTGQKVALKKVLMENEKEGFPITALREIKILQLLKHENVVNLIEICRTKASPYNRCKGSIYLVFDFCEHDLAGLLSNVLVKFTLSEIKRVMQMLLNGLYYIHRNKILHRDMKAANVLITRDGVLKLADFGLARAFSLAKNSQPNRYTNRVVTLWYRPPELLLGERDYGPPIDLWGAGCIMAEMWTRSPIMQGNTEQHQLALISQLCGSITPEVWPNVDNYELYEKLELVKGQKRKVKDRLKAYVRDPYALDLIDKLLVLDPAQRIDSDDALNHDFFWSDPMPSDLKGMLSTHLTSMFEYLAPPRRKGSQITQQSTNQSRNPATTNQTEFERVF
# T4 sequence (O75909 whole entry partner): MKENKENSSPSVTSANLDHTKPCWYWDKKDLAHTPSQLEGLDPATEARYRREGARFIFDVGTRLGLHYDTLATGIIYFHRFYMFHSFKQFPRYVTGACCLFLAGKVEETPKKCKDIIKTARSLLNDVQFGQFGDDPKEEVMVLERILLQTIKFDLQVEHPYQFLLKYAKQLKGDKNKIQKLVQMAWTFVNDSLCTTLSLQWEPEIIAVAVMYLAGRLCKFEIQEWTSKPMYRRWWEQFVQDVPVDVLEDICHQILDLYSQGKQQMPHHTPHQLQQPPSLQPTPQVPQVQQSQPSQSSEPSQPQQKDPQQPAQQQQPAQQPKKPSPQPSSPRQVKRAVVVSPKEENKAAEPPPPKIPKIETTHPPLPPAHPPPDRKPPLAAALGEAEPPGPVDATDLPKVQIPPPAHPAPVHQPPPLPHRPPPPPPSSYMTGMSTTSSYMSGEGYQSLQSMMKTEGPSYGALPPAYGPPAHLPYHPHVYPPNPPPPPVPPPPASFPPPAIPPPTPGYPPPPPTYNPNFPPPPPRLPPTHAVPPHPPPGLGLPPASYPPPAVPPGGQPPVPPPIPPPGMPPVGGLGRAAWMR
# T13 sequence (P27361 whole entry): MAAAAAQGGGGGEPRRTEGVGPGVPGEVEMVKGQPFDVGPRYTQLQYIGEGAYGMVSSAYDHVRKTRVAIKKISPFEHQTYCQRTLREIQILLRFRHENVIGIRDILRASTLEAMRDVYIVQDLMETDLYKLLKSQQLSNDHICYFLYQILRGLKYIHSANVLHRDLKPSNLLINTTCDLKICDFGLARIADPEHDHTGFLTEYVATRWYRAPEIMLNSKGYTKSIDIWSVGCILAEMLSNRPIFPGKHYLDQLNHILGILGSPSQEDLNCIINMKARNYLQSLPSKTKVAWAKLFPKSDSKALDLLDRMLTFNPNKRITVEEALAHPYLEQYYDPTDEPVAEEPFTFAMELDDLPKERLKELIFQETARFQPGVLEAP
# T3 sequence (Q00526 whole entry): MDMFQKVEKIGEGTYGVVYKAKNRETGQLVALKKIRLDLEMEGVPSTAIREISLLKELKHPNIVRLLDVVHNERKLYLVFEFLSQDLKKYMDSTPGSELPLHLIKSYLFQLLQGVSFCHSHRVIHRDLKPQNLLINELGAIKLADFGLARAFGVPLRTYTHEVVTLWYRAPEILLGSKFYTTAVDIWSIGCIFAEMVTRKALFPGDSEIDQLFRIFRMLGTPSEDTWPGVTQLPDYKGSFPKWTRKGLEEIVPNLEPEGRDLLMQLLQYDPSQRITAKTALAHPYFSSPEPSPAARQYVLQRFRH
# T3 sequence (P24864 whole entry partner): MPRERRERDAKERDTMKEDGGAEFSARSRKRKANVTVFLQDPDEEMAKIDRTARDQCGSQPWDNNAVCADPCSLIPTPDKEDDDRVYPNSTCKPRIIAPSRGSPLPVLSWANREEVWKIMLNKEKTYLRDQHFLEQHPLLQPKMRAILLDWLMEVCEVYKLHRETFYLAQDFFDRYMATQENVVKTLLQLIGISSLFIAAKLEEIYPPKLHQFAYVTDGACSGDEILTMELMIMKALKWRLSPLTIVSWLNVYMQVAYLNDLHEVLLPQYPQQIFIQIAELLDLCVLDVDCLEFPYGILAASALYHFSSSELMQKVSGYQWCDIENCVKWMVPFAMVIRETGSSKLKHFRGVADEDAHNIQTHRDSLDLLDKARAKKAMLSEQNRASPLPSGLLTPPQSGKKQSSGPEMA
# T10 sequence (P29317 24-976): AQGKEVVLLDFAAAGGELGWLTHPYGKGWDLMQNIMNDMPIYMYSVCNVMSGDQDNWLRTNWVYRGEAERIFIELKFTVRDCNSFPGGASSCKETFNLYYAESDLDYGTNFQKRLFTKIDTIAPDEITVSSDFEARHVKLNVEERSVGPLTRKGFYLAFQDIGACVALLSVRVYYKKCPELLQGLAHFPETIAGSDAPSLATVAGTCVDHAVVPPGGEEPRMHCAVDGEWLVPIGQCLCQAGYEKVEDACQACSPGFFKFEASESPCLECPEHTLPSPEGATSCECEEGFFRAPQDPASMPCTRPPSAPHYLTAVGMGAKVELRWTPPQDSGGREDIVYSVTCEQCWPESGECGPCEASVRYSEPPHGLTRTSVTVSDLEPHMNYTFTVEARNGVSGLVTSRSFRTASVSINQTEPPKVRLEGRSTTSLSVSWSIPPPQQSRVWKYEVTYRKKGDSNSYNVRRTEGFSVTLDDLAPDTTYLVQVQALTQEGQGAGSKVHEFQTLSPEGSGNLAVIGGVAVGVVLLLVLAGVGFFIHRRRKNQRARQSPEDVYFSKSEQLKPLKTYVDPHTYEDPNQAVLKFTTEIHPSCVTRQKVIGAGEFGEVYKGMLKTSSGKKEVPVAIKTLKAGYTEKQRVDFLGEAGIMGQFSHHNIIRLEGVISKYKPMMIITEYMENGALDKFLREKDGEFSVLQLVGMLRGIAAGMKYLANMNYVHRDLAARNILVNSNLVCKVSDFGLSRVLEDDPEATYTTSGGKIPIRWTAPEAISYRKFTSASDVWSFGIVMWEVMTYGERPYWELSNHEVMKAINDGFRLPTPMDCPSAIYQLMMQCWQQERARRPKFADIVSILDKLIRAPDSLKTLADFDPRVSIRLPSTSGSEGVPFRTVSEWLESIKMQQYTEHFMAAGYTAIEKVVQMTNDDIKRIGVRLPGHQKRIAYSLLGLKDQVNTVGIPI
# T2 sequence (P15056 whole entry): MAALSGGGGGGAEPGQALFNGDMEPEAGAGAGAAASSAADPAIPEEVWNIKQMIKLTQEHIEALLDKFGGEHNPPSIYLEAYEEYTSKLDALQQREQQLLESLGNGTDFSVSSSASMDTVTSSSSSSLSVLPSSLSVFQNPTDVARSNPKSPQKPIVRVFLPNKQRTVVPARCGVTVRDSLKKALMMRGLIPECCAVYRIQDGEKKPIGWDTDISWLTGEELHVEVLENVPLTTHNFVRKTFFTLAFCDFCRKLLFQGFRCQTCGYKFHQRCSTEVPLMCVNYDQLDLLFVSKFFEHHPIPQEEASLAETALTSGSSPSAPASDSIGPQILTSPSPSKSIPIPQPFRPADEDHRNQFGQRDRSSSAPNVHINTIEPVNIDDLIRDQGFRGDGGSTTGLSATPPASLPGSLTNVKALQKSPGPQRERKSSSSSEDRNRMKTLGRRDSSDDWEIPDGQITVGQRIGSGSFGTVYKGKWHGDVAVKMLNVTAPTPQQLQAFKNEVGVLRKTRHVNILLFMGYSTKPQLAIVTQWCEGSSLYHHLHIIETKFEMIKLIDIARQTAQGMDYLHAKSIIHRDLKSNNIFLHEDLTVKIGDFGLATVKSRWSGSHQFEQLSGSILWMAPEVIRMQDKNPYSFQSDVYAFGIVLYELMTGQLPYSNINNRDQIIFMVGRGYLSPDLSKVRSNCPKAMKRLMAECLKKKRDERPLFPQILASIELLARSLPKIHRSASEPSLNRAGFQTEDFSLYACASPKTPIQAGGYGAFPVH
structure (smiles),measurement,setting,value
"CC(=O)Nc1nc2ccc(-c3cnc(C)c(NC(=O)OC4CCCCC4)c3)cc2s1 [PK68, cyclohexyl (5-(2-acetamidobenzo[d]thiazol-6-yl)-2-methylpyridin-3-yl)carbamate]",Activity%,BLK; 1 μM,93.58%
same,activity at 1 µM,BLK,95.4%
same,Activity%,BRAF; 1 μM,83.61%
same,activity at 1 µM,BRAF,84.8%
same,Activity%,CDK3/cyclin E; 1 μM,91.48%
same,activity at 1 µM,CDK3/cyclin E,91.7%
same,Activity%,CDK9/cyclin K; 1 μM,104.96%
same,activity at 1 µM,CDK9/cyclin K,106%
same,Activity%,CHK2; 1 μM,98.81%
same,activity at 1 µM,CHK2,99.1%
same,Activity%,COT1/MAP3K8; 1 μM,94.93%
same,activity at 1 µM,COT1/MAP3K8,95.2%
same,Activity%,DCAMKL1; 1 μM,87.59%
same,activity at 1 µM,DCAMKL1,87.7%
same,Activity%,DYRK1/DYRK1A; 1 μM,95.93%
same,activity at 1 µM,DYRK1/DYRK1A,97.4%
same,Activity%,DYRK1B; 1 μM,97.55%
same,activity at 1 µM,DYRK1B,99.4%
same,Activity%,EPHA2; 1 μM,94.92%
same,activity at 1 µM,EPHA2,95.2%
same,Activity%,EPHA5; 1 μM,100.43%
same,activity at 1 µM,EPHA5,102%
same,Activity%,EPHB1; 1 μM,95.01%
same,activity at 1 µM,EPHB1,95.5%
same,Activity%,ERK1; 1 μM,87.90%
same,activity at 1 µM,ERK1,91.6%
same,Activity%,FES/FPS; 1 μM,96.80%
same,activity at 1 µM,FES/FPS,96.9%
same,Activity%,FMS; 1 μM,71.06%
same,activity at 1 µM,FMS,71.1%
same,Activity%,GRK2; 1 μM,99.02%
same,activity at 1 µM,GRK2,101%
same,Activity%,GRK5; 1 μM,103.56%
same,activity at 1 µM,GRK5,104%
same,Activity%,HPK1/MAP4K1; 1 μM,98.32%
same,activity at 1 µM,HPK1/MAP4K1,101%
same,Activity%,MLK4; 1 μM,104.45%
same,activity at 1 µM,MLK4,107%
same,Activity%,MRCKa/CDC42BPA; 1 μM,101.41%
same,activity at 1 µM,MRCKa/CDC42BPA,104%
same,Activity%,MSSK1/STK23; 1 μM,100.79%
same,activity at 1 µM,MSSK1/STK23,103%
same,Activity%,MST4; 1 μM,101.18%
same,activity at 1 µM,MST4,102%
same,Activity%,MUSK; 1 μM,70.88%
same,activity at 1 µM,MUSK,75.9%
same,Activity%,MYLK3; 1 μM,100.10%
same,activity at 1 µM,MYLK3,101%
same,Activity%,PAK1; 1 μM,101.03%
same,activity at 1 µM,PAK1,102%
same,Activity%,PAK6; 1 μM,92.62%
same,activity at 1 µM,PAK6,93.6%
same,Activity%,PASK; 1 μM,91.47%
same,activity at 1 µM,PASK,93%
same,Activity%,PIM3; 1 μM,101.62%
same,activity at 1 µM,PIM3,104%
same,Activity%,PKCiota; 1 μM,92.87%
same,activity at 1 µM,PKCiota,97%
same,Activity%,PKD2/PRKD2; 1 μM,90.63%
same,activity at 1 µM,PKD2/PRKD2,93.9%
same,Activity%,PKG1a; 1 μM,90.22%
same,activity at 1 µM,PKG1a,90.3%
same,Activity%,STK32B/YANK2; 1 μM,106.39%
same,activity at 1 µM,STK32B/YANK2,107%
same,Activity%,STK38/NDR1; 1 μM,96.05%
same,activity at 1 µM,STK38/NDR1,98.9%
